Holding throughout (assay type): functional, cell-based
A short description of test [1]: Antiinflammatory activity in neutrophil assessed as inhibition of fMLP induced elastase release. Conditions: Homo sapiens.
A short description of test [2]: Antiinflammatory activity in neutrophils assessed as inhibition of oxygen radical generation. The settings on record: Homo sapiens, Neutrophil.
Test [3] in a line: Anticoagulant activity assessed as inhibition of thrombin induced rabbit platelet aggregation. Conditions: Oryctolagus cuniculus.
Test [4] can be described thus: Anticoagulant activity assessed as inhibition of arachidonic acid induced rabbit platelet aggregation. Conditions: Oryctolagus cuniculus.

Some results are limits rather than exact numbers.

For orientation: IC50 means the concentration needed to halve the response being measured. Consider `COC(=O)c1cccc(Cl)c1NC(=O)c1ccccc1Cl`, for which the IC50 in test [1] is over 40 µM; in test [2], over 40 µM; in test [3], over 100 µM; in test [4] it was over 100 µM.

As for `COC(=O)c1ccccc1NC(=O)c1ccccc1F`, the IC50 in test [1] was over 40 µM; in test [2], 0.65 µM; in test [3], over 100 µM; in test [4], 10.8 µM.

On to `COC(=O)c1ccccc1NC(=O)c1ccccc1Cl`, for which the IC50 was over 40 µM in test [1], 11 µM in test [2], over 100 µM in test [3] and 11 µM in test [4].

On to `COC(=O)c1ccccc1NC(=O)c1cccc(Br)c1`, for which the IC50 in test [1] is 15.4 µM; in test [2] it was over 40 µM; in test [3], over 100 µM; in test [4], over 100 µM.

As to `COC(=O)c1ccc(Cl)cc1NC(=O)c1ccc(F)cc1`, the 50% inhibitory concentration (IC50) in test [1] is over 40 µM; in test [2], over 40 µM; in test [3] it was over 100 µM; in test [4] it was over 100 µM.

Consider `COC(=O)c1ccccc1NC(=O)c1ccccc1C`, for which the IC50 in test [1] was over 40 µM; in test [2] it was 9.26 µM; in test [3] it was over 100 µM; in test [4], 16.6 µM.

With `COC(=O)c1ccccc1NC(=O)c1ccccc1OC`, the IC50 in test [1] is over 40 µM; in test [2], 7.41 µM; in test [3] it was over 100 µM; in test [4], 8 µM.

As for `COC(=O)c1ccc(Cl)cc1NC(=O)c1ccccc1Cl`, the half-inhibitory concentration (IC50) was over 40 µM in test [1], over 40 µM in test [2], over 100 µM in test [3] and 1.1 µM in test [4].

As for `CCOC(=O)c1ccccc1NC(=O)c1ccccc1F`, the values for the IC50 in test [1], in test [2] and in test [3] were 14.3 µM, 0.17 µM and over 100 µM, respectively.

As to `COC(=O)c1ccccc1NC(=O)c1cccc(C)c1`, the IC50 in test [1] was 18.3 µM; in test [2], over 40 µM; in test [3], over 100 µM; in test [4], over 100 µM.

As for `CCOC(=O)c1ccc(Cl)cc1NC(=O)c1ccccc1F`, the 50% inhibitory concentration (IC50) in test [1] is over 40 µM; in test [2], over 40 µM; in test [3] it was over 100 µM; in test [4], 3.8 µM.

Turning to `CCOC(=O)c1ccc(Cl)cc1NC(=O)c1ccccc1Br`, the half-inhibitory concentration (IC50) in test [1] was over 40 µM; in test [2], over 40 µM; in test [3], over 100 µM; in test [4] it was 3.6 µM.

As for `COC(=O)c1ccccc1NC(=O)c1ccc(F)cc1`, the 50% inhibitory concentration (IC50) in test [1] is over 40 µM; in test [2], over 40 µM; in test [3] it was over 100 µM; in test [4], over 100 µM.

Regarding `COC(=O)c1c(Cl)cccc1NC(=O)c1ccccc1Cl`, the IC50 in test [1] is over 40 µM; in test [2], over 40 µM; in test [3], over 100 µM; in test [4], 80.8 µM.

With `CCOC(=O)c1ccc(Cl)cc1NC(=O)c1ccccc1C`, the IC50 in test [1] was 2.83 µM; in test [2] it was over 40 µM; in test [3], over 100 µM; in test [4], 4.9 µM.

As to `CCCOC(=O)c1ccc(Cl)cc1NC(=O)c1ccccc1F`, the IC50 in test [1] was over 40 µM; in test [2], over 40 µM; in test [3], over 100 µM; in test [4], 1.6 µM.

As to `CCCOC(=O)c1ccc(Cl)cc1NC(=O)c1ccccc1Cl`, the concentration for half-maximal inhibition (IC50) is over 40 µM in test [1], over 40 µM in test [2], over 100 µM in test [3] and 0.7 µM in test [4].

Take `COC(=O)c1c(Cl)cccc1NC(=O)c1ccccc1Br`: the half-maximal inhibitory concentration (IC50) is over 40 µM in test [1], over 40 µM in test [2], over 100 µM in test [3] and 76.4 µM in test [4].

Regarding `CCCOC(=O)c1ccc(Cl)cc1NC(=O)c1ccccc1Br`, the half-inhibitory concentration (IC50) in test [1] is over 40 µM; in test [2], over 40 µM; in test [3], over 100 µM; in test [4], 3.5 µM.

Take `COC(=O)c1ccccc1NC(=O)c1ccc(C)cc1`: the IC50 was over 40 µM in test [1], over 40 µM in test [2], over 100 µM in test [3] and over 100 µM in test [4].

With `COC(=O)c1ccc(Cl)cc1NC(=O)c1ccccc1C`, the IC50 in test [1] was over 40 µM; in test [2] it was over 40 µM; in test [3] it was over 100 µM; in test [4], 4.3 µM.

Regarding `COC(=O)c1ccccc1NC(=O)c1ccc(Cl)cc1`, the IC50 in test [1] is over 40 µM; in test [2], over 40 µM; in test [3], over 100 µM; in test [4] it was over 100 µM.

For the compound `CC(=O)c1ccccc1NC(=O)c1ccccc1F`, the IC50 is over 40 µM in test [1], 24.1 µM in test [2] and over 100 µM in test [3].

For the compound `COC(=O)c1cccc(Cl)c1NC(=O)c1ccccc1Br`, the 50% inhibitory concentration (IC50) in test [1] was over 40 µM; in test [2], over 40 µM; in test [3] it was over 100 µM; in test [4] it was over 100 µM.

Consider `COC(=O)c1ccc(Cl)cc1NC(=O)c1ccc(C)cc1`, for which the IC50 in test [1] was over 40 µM; in test [2] it was over 40 µM; in test [3] it was over 100 µM; in test [4], over 100 µM.

Consider `COC(=O)c1ccc(Cl)cc1NC(=O)c1ccc(OC)cc1`, for which the concentration for half-maximal inhibition (IC50) in test [1] is over 40 µM; in test [2], over 40 µM; in test [3], over 100 µM; in test [4], over 100 µM.

In the case of `COC(=O)c1ccccc1NC(=O)c1ccc(Br)cc1`, the 50% inhibitory concentration (IC50) in test [1] is over 40 µM; in test [2] it was over 40 µM; in test [3] it was over 100 µM; in test [4], over 100 µM.

For the compound `COC(=O)c1ccccc1NC(=O)c1ccc(OC)cc1`, the IC50 is over 40 µM in test [1], over 40 µM in test [2], over 100 µM in test [3] and over 100 µM in test [4].

Consider `COC(=O)c1cccc(Cl)c1NC(=O)c1ccccc1F`, for which the concentration for half-maximal inhibition (IC50) in test [1] is over 40 µM; in test [2] it was over 40 µM; in test [3], over 100 µM; in test [4], over 100 µM.

Turning to `COC(=O)c1ccccc1NC(=O)c1cccc(OC)c1`, the IC50 is over 40 µM in test [1], over 40 µM in test [2], over 100 µM in test [3] and over 100 µM in test [4].

Turning to `COC(=O)c1cccc(Cl)c1NC(=O)c1ccccc1C`, the IC50 in test [1] is over 40 µM; in test [2], over 40 µM; in test [3], over 100 µM; in test [4] it was over 100 µM.

Regarding `COC(=O)c1ccccc1NC(=O)c1cccc(Cl)c1`, the IC50 in test [1] is over 40 µM; in test [2], over 40 µM; in test [3], over 100 µM; in test [4] it was over 100 µM.

For `COC(=O)c1ccccc1NC(=O)c1cccc(F)c1`, the IC50 was over 40 µM in test [1], 10.6 µM in test [2], over 100 µM in test [3] and over 100 µM in test [4].

On to `CCOC(=O)c1ccc(Cl)cc1NC(=O)c1ccccc1OC`, for which the half-inhibitory concentration (IC50) was 4.31 µM in test [1], over 40 µM in test [2], over 100 µM in test [3] and 4.9 µM in test [4].

With `COC(=O)c1cccc(Cl)c1NC(=O)c1ccccc1OC`, the 50% inhibitory concentration (IC50) in test [1] was over 40 µM; in test [2], over 40 µM; in test [3], over 100 µM; in test [4], 66.6 µM.

As to `CCCOC(=O)c1ccc(Cl)cc1NC(=O)c1ccccc1OC`, the IC50 in test [1] is over 40 µM; in test [2] it was over 40 µM; in test [3] it was over 100 µM; in test [4], 23.4 µM.

Consider `COC(=O)c1ccccc1NC(=O)c1ccccc1Br`, for which the IC50 in test [1] was over 40 µM; in test [2], 12 µM; in test [3], over 100 µM; in test [4], 22.9 µM.

For `COC(=O)c1ccc(Cl)cc1NC(=O)c1ccccc1F`, the 50% inhibitory concentration (IC50) was over 40 µM in test [1], over 40 µM in test [2], over 100 µM in test [3] and 2.2 µM in test [4].

Take `COC(=O)c1c(Cl)cccc1NC(=O)c1ccccc1OC`: the IC50 in test [1] is over 40 µM; in test [2], over 40 µM; in test [3] it was over 100 µM; in test [4] it was 62.3 µM.

With `CCOC(=O)c1ccc(Cl)cc1NC(=O)c1ccccc1Cl`, the IC50 was over 40 µM in test [1], over 40 µM in test [2], over 100 µM in test [3] and 0.8 µM in test [4].

Consider `COC(=O)c1ccc(Cl)cc1NC(=O)c1ccccc1Br`, for which the IC50 in test [1] was over 40 µM; in test [2] it was over 40 µM; in test [3] it was over 100 µM; in test [4], 2.6 µM.

`COC(=O)c1ccc(Cl)cc1NC(=O)c1ccc(Cl)cc1`: the concentration for half-maximal inhibition (IC50) in test [1] is over 40 µM; in test [2] it was over 40 µM; in test [3] it was over 100 µM; in test [4], over 100 µM.

For the compound `COC(=O)c1ccc(Cl)cc1NC(=O)c1ccc(Br)cc1`, the IC50 in test [1] is over 40 µM; in test [2], over 40 µM; in test [3], over 100 µM; in test [4] it was over 100 µM.

For the compound `COC(=O)c1c(Cl)cccc1NC(=O)c1ccccc1F`, the concentration for half-maximal inhibition (IC50) in test [1] was over 40 µM; in test [2], over 40 µM; in test [3] it was over 100 µM; in test [4], 78.2 µM.

Turning to `COC(=O)c1ccc(Cl)cc1NC(=O)c1ccccc1OC`, the half-maximal inhibitory concentration (IC50) in test [1] is over 40 µM; in test [2] it was over 40 µM; in test [3], over 100 µM; in test [4], 2.2 µM.

`COC(=O)c1c(Cl)cccc1NC(=O)c1ccccc1C`: the half-maximal inhibitory concentration (IC50) was over 40 µM in test [1], over 40 µM in test [2], over 100 µM in test [3] and over 100 µM in test [4].

On to `CCCOC(=O)c1ccc(Cl)cc1NC(=O)c1ccccc1C`, for which the IC50 was over 40 µM in test [1], over 40 µM in test [2], over 100 µM in test [3] and 2.2 µM in test [4].

Turning to `CC(=O)Oc1ccccc1C(=O)O` [ASPIRIN], the concentration for half-maximal inhibition (IC50) in test [1] was over 40 µM; in test [2], over 40 µM; in test [3] it was over 100 µM; in test [4], 152 µM.

In the case of `c1ccc2c(c1)[I+]c1ccccc1-2` [DIPHENYLENEIODONIUM], the 50% inhibitory concentration (IC50) in test [2] was found to be 0.86 µM.

On to `COc1ccc2c(c1)c(CC(=O)O)c(C)n2C(=O)c1ccc(Cl)cc1` [INDOMETHACIN], for which the half-maximal inhibitory concentration (IC50) in test [1] was over 40 µM; in test [2], over 40 µM; in test [3], over 100 µM; in test [4], 0.14 µM.

`O=S(=O)(F)Cc1ccccc1` [PHENYLMETHYLSULFONYLFLUORIDE]: the IC50 in test [1] came out at 131 µM.

Source of the values: ChEMBL document CHEMBL1139089, “The evaluation and structure-activity relationships of 2-benzoylaminobenzoic esters and their analogues as anti-inflammatory and anti-platelet aggregation agents” (Bioorg Med Chem Lett, 2007).
